From PMC6272662, “Trypanocidal Activity of Long Chain Diamines and Aminoalcohols” (Molecules, 2015)

Tests used:
[1] = test system: Trypanosoma cruzi epimastigotes strain MG (MHOM/CO/04/MG); test: Epimastigote susceptibility assay, MG strain (Trypan Blue and XTT); format: cell-based; details: for MG Strain SI (Selectivity Index: LC50-macrophages/IC50-epimastigotes): MG strain epimastigotes vs J774.2 macrophages; for MG Strain PNFX (potency relative to NFX = IC50-NFX/IC50-compound; also called NI) / IC50: epimastigotes, MG strain; for IC50: 72 h at 28 °C, 0.1-70.0 µM, mean ± SEM
Experimental: (§1) For in vitro studies, the strains MHOM/CO/04/MG (MG), MHOM/CO/05/JEM (JEM) and CL Brener strain clone B5 (CL-B5) were used. The MG and JEM strains correspond to Group I and Haplotype Ia isolates from two Colombian patients in the acute phase, and CL-B5 is a strain stably transfected with Escherichia coli β-galactosidase gene (lacZ). Epimastigotes were grown in plastic culture flasks at 28 °C, in axenic liver-infusion tryptose (LIT) growth medium, supplemented with 10% heat inactivated (30 min at 56 °C) foetal calf serum (FCS; Sigma), […] hemin (Sigma), and 10 µg/mL gentamycin (Sigma) and harvested in the exponential phase for conducting the experiments. Cultures were continuously maintained in logarithmic growth by weekly passages.
(§2) Three different strains of T. cruzi were used for the primary screening on epimastigote forms. For strains MG and JEM, the screening assay was performed with approximately 1 × 10^5 epimastigotes in logaritmic growth phase in 200 μL of supplemented LIT medium per well in 96-well flat bottoned plates (Costar, Corning, Cornig, NY, USA). […] The plates were incubated for 72 h at 28 °C and all experimental conditions were evaluated in triplicate in three independent experiments. The epimastigote growth inhibition was microscopically determined by the Trypan Blue dye exclusion assay and XTT (2,3-bis-(2-methoxy-4-nitro-5-sulfophenyl)-5-[(phenylamino)carbonyl]-2H-tetrazolium hydroxide). Regarding the first method, an aliquot from every culture was suspended in 0.4% trypan blue solution for 5 min and cell viability was determined under microscope by counting live parasites in each condition in a Neubauer chamber. Anti-epimastigote activity percentage was calculated as (Parasite counts in control wells-Parasite counts in experimental wells) × 100/Parasite counts in control wells. Trypanocidal activity over both strains was also measured adding 50 μL of XTT solution per well to obtain a final concentration of 0.3 mg/mL. The plate was re-incubated 24 h in the dark at 37 °C and orange formazan solution formed, was spectrophotometrically quantified at 450 nm with a 630 nm reference filter, using an Ear400FT ELISA reader.
(§3) Furthermore the Selectivity Index (SI = mammalian cell LC50/epimastigote IC50) for each compound was calculated to compare the antiprotozoal activity with its respective mammalian cell cytotoxicity.

[2] = test system: Trypanosoma cruzi epimastigotes strain JEM (MHOM/CO/05/JEM); test: Epimastigote susceptibility assay, JEM strain (Trypan Blue and XTT); format: cell-based; details: for JEM Strain SI (Selectivity Index: LC50-macrophages/IC50-epimastigotes): JEM strain epimastigotes vs J774.2 macrophages; for JEM Strain PNFX (potency relative to NFX = IC50-NFX/IC50-compound; also called NI) / IC50: epimastigotes, JEM strain; for IC50: 72 h at 28 °C, 0.1-70.0 µM, mean ± SEM
Experimental: as §1, §2, §3

[3] = test system: Trypanosoma cruzi epimastigotes CL Brener strain clone B5 (CL-B5); test: Epimastigote susceptibility assay, CL-B5 clone (β-galactosidase activity, CPRG); format: cell-based; details: for Epimastigotes CL-B5 Clone SI: NCTC-929 cytotoxicity / epimastigote IC50; for Epimastigotes CL-B5 Clone PNFX (nifurtimox IC50/compound IC50) / IC50: epimastigotes, CL-B5 clone; for IC50: 72 h at 28 °C, β-galactosidase readout, mean ± SEM
Experimental: as §1
Trypanocidal activity against CL-B5 strain was also assessed by measuring β-galactosidase activity. Briefly, log-phase epimastigotes were seeded in 96-well microplates at a density of 2.5 × 10^5 parasites/mL in a final volume of 200 μL/well and incubated within the compounds for 72 h at 28 °C. Afterwards, 50 μL of the β-galactosidase substrate chlorophenol red β-D-galactopyranoside (CPRG, Roche) in 0.9% Triton X-100 (Panreac) solution were added to each well (200 μM, pH 7.4) and the plates incubated at 37 °C for 3 h. Anti-epimastigote activity was estimated by reading absorbance at 595 nm. Each concentration was assayed by triplicate, in three independent experiments. […] In all spectrophotometric assays, anti-epimastigote activity percentages were calculated as (OD control wells − OD experimental wells) ×100/OD control wells.
as §3

[4] = test system: Trypanosoma cruzi amastigotes CL-B5 clone; test: Amastigote susceptibility assay, CL-B5 clone in NCTC-929 fibroblasts (CPRG); format: cell-based; details: for Amastigotes CL-B5 Clone SI: NCTC-929 cytotoxicity / amastigote IC50; for IC50: intracellular amastigotes in NCTC-929 fibroblasts, 7 days, mean ± SEM
Experimental: For the anti-amastigote assays, axenic cultures of epimastigotes reaching their stationary phase of growth (14 day-old cultures) were used to infect non-confluent monolayers of NCTC-929 fibroblasts to obtain tissue culture derived trypomastigotes (TCT). After 24 h at 33 °C in a humidified 5% CO2 atmosphere, the infected cultures were washed with phosphate buffer saline (PBS) to removed non-penetrated epimastigotes. TCT were harvested from the supernatant of the cultures after one week of incubation in these conditions of temperature and humidity.
For this assay, 120 μL of BME containing 10,000 NCTC-929 fibroblasts/well were seeded in 48-well plates (Costar) and after their attachment, infected with TCT obtained as above in a 1:6 cell-parasite ratio. The plates were incubated at 33 °C and 5% CO2 overnight and after the infection, experimental wells were washed with PBS to eliminate non-penetrated TCT. […] Then, 50 μL of a CPRG solution in 3% Triton X-100 (pH 7.4) were added to each well in a final concentration of 400 μM and the plates incubated 3 h at 37 °C. Finally, anti-amastigote activity was estimated by reading absorbance at 595 nm in a plate reader (Infinite 200, Tecan) and calculated as in Fonseca-Berzal et al.. IC50 and NI indexes were calculated as above.

J774.2 macrophages = test: in vitro; details: for CC50: read-out: Macrophages LC50, J774.2 macrophages, 72 h, mean ± SEM
Experimental: (§4) The mouse cell lines J774.2 macrophages and NCTC clone 929 fibroblasts were used and cultured in plastic culture flasks. J774.2 and NCTC-929 cells were grown using DMEM and BME without phenol-red, respectively. Both media were supplemented with 10% heat inactivated fetal calf serum, 2 mM glutamine, 100 U/mL penicillin and 100 μg/mL streptomycin. Cell cultures were maintained at 37 °C in a humidified atmosphere containing 5% CO2 and subpassaged once a week. Cells in the pre-confluence phase were harvested with an EDTA-trypsin solution for the experiments.
(§5) Unspecific cytotoxicity was evaluated over phagocytic macrophages J774.2 cell line. To study cytotoxicity on J774.2 cells, 200 μL of a suspension of 2 × 10^5 macrophages/mL were added to 96 well flat-bottom microplates (Sigma). Cells were allowed to attach for 24 h at 37 °C and then exposed to the compounds for 72 h at the same concentrations as used for drug screening. […] Each concentration was assayed by triplicate, in independent experiments. Cytotoxicity was assessed by the Trypan Blue and XTT techniques and LC50 was calculated as described above.

NCTC-929 fibroblasts = test: in vitro; format: cell-based; details: NCTC-929 fibroblasts, 48 h, resazurin, mean ± SEM; read-out: Cytotoxicity NCTC-929 LC50
Experimental: (§6) NCTC-929 cells were placed in triplicate in 96-well microtitre plates at 15 × 10^3 cells per well in 100 µL of MEM supplemented with FBS and antibiotics. The cells were grown overnight at 37 °C in 5% CO2. Thereafter, the medium was removed and the compounds were added in 200 µL of medium and plates were incubated 48 h at 37 °C in 5% CO2. After incubation, 20 µL of 2 mM resazurin (Sigma) solution was added to each well. The plates were incubated for 3 h and metabolic activity was measured by fluorimetric readings taken in a plate fluorometer (Infinite 200, TECAN, Mannedorf, Switzerland) at λexcitation 535 nm and λemission 590 nm, according to the Alamar blue® Assay.

in vitro [5] = details: mouse
Experimental: as §4, §5

in vitro [6] = format: cell-based; details: mouse
Experimental: as §6

Chagas disease = test system: Chagas disease; parameters: method as in PMID 22614520, PMID 22760123, PMID 22686518, PMID 19967227; details: chronic cases of Chagas disease; ref [6],[7],[8],[9]; cited from earlier work
[7] = Trypanosoma cruzi, NCTC929, 168 h

| Compound | MG Strain SI (Selectivity Index: LC50-macrophages/IC50-epimastigotes) [1] | MG Strain PNFX (potency relative to NFX = IC50-NFX/IC50-compound; also called NI) [1] | IC50 [1] [µM] | JEM Strain SI (Selectivity Index: LC50-macrophages/IC50-epimastigotes) [2] | JEM Strain PNFX (potency relative to NFX = IC50-NFX/IC50-compound; also called NI) [2] | IC50 [2] [µM] | Epimastigotes CL-B5 Clone SI [3] | Epimastigotes CL-B5 Clone PNFX (nifurtimox IC50/compound IC50) [3] | IC50 [3] [µM] | Amastigotes CL-B5 Clone SI [4] | Amastigotes CL-B5 Clone PNFX (nifurtimox IC50/compound IC50) [4] | IC50 [4] [µM] | CC50 (J774.2 macrophages) [µM] | CC50 (NCTC-929 fibroblasts) [µM] | IC50 ([1]; Trypanosoma cruzi, 72 h) [µM] | IC50 ([2]; Trypanosoma cruzi, 72 h) [µM] | IC50 ([3]; Trypanosoma cruzi) [µM] | IC50 [4, 7] [µM] | CC50 at 72 h (in vitro [5]) [µM] | CC50 at 48 h (in vitro [6]) [µM] | further results |
| --- | --- | --- | --- | --- | --- | --- | --- | --- | --- | --- | --- | --- | --- | --- | --- | --- | --- | --- | --- | --- | --- |
| 2-tert-Butoxycarbonyl-hexadecan-1,2-diamine [Compound 15] | 4.0 | 1.8 | 12 ± 2.15 | 2.4 | 0.7 | 20.4 ± 0.3 | 10.6 | 4.3 | 2.4 ± 0.01 | 9.8 | 0.2 | 2.6 ± 0.23 | 48.1 ± 0.15 | 25.6 ± 0.06 | – | – | – | – | – | – | – |
| 2-(tert-Butoxycarbonyl)-dodecan-1,2-diamine [Compound 14] | 4.4 | 2.0 | 10.8 | 3.3 | 1.0 | 14.5 ± 0.05 | 11.8 | 4.2 | 2.5 ± 0.03 | 9.9 | 0.2 | 3 ± 0.21 | 47.1 ± 0.35 | 29.6 ± 0.01 | – | – | – | – | – | – | – |
| CCCCCCCCCCCCCCC(CO)NCC (centres unmarked) [Compound 5, 2-(Ethylamino)hexadecanol] | 2.0 | 1.0 | – | 2.3 | 0.8 | – | 9.8 | 3.1 | – | 54 | 1.0 | – | – | – | 21.6 ± 2.95 | 19.3 ± 1.35 | 3.3 ± 0.1 | 0.6 ± 0.25 | 43.4 ± 0.5 | 32.4 ± 0.02 | – |
| CCCCCCCCCCCCCCC(CO)NCCCC (centres unmarked) [Compound 6, 2-(Butylamino)hexadecanol] | – | 6.6 | – | – | 5.3 | – | 22.7 | 2.5 | – | 47.8 | 0.3 | – | – | – | 3.2 ± 0.2 | 2.8 ± 0.75 | 4.2 ± 0.52 | 2 ± 0.27 | 63.9 ± 3.5 | 95.6 ± 1.19 | times less toxic than NFX (J774.2 macrophages; macrophages LC50 relative to NFX): 1.3 |
| CC1CS(=O)(=O)CCN1/N=C/c1ccc([N+](=O)[O-])o1 (centres unmarked) [NFX, nifurtimox, reference compound] | – | – | – | – | – | – | – | – | – | – | – | – | – | – | 21.2 ± 1.16 | 14.8 ± 1.24 | 10.4 ± 1.3 | 0.6 ± 0.01 | – | – | average cure rate (Chagas disease): less than 20% |
| CCCCCCCCCCCCCCC(N)CO (centres unmarked) [Compound 2, 2-Aminohexadecanol] | 3.3 | 0.9 | – | 26 | 4.9 | – | 7.2 | 3.0 | – | 14.0 | 0.3 | – | – | – | 23.7 ± 3.15 | 3 ± 1.5 | 3.5 ± 0.01 | 1.8 ± 0.12 | 77.8 ± 0.35 | 25.2 ± 0.12 | – |
